{"source": "PubChem BioAssay AID652090", "about": "(Broad Institute, 2013)", "experiment_in_all_cases": "protein binders identified by SILAC affinity pulldown, late-stage follow-up, mechanism study for beta-cell protection project, cell lysate, INS-1E, SILAC competition, mass spectrometry (AID 652090)", "key": {"Mcm6 [1]": {"molecular_target": "Mcm6 (UniProt Q62724)", "sequence (Q62724 whole entry, looked up)": "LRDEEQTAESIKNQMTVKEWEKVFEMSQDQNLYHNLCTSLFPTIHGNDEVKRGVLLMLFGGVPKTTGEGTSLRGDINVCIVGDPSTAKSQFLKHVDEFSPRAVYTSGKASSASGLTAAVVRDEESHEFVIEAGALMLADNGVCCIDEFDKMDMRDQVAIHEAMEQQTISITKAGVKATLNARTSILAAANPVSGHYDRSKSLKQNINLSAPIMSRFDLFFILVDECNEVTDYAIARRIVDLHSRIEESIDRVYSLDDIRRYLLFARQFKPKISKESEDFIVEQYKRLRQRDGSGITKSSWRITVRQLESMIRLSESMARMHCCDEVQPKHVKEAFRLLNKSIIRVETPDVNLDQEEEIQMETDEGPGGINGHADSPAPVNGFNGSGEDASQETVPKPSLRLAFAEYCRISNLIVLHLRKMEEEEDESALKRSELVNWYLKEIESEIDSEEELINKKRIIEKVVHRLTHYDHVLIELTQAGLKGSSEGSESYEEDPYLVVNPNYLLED", "conditions": "INS-1E SILAC affinity pulldown, competition MS ratio, stronger effect = higher value"}, "Cand2 [2]": {"molecular_target": "Cand2 (UniProt Q9R0L4)", "sequence (Q9R0L4 whole entry, looked up)": "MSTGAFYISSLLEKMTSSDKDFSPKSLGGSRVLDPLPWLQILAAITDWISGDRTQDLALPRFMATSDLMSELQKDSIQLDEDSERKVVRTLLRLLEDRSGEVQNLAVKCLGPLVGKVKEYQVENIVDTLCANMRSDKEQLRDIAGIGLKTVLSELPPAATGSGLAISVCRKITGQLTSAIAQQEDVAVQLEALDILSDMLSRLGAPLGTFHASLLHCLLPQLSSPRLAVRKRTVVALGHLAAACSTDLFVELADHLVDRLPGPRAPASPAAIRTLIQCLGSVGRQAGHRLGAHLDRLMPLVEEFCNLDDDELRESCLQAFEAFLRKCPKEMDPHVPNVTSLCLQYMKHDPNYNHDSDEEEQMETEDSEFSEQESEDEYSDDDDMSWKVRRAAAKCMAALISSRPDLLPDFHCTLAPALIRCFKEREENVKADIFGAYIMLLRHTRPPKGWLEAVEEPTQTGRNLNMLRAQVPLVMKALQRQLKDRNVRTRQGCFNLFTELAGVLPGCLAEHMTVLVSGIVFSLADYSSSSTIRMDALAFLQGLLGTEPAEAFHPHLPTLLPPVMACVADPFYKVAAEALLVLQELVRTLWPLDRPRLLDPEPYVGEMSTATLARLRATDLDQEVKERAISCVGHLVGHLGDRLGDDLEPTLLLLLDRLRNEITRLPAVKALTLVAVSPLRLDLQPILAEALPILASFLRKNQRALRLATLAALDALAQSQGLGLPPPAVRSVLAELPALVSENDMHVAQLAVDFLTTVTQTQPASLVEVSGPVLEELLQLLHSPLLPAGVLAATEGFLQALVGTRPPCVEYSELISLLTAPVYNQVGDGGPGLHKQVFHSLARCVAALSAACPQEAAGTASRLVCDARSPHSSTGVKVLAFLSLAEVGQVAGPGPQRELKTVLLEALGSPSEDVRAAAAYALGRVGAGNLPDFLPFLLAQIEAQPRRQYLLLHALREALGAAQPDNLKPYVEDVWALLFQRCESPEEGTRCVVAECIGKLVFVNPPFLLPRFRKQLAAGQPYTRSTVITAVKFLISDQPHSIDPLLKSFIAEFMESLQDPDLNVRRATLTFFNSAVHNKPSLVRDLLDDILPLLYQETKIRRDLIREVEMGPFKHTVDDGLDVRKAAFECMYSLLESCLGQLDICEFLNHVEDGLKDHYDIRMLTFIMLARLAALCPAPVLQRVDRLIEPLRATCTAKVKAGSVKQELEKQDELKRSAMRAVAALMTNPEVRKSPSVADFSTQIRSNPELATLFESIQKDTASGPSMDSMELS", "conditions": "INS-1E SILAC affinity pulldown, competition MS ratio, stronger effect = higher value"}, "Retsat [3]": {"molecular_target": "Retsat (UniProt Q8VHE9)", "conditions": "INS-1E SILAC affinity pulldown, competition MS ratio, stronger effect = higher value"}, "Ahcy": {"tested_on": "Ahcy", "conditions": "INS-1E SILAC affinity pulldown, competition MS ratio, enrichment significance, stronger effect = lower value"}, "[4]": {"molecular_target": "Glyceraldehyde-3-phosphate dehydrogenase (Rattus norvegicus) (UniProt P04797)", "sequence (P04797 whole entry, looked up)": "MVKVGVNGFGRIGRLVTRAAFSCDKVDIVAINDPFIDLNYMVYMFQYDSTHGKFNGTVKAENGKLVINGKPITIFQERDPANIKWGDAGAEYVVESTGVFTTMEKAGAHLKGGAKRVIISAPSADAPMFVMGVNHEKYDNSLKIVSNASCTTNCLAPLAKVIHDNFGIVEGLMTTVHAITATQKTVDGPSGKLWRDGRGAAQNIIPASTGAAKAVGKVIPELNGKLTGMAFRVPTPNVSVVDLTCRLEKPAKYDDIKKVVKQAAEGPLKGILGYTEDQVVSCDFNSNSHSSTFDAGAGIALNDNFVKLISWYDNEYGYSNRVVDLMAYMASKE", "conditions": "INS-1E SILAC affinity pulldown, competition MS ratio; Gapdh; stronger effect = higher value"}, "Xpo1 [5]": {"tested_on": "Xpo1", "conditions": "INS-1E SILAC affinity pulldown, competition MS ratio, enrichment significance, stronger effect = lower value"}, "Xpo1 [6]": {"molecular_target": "Xpo1 (UniProt Q80U96)", "sequence (Q80U96 whole entry, looked up)": "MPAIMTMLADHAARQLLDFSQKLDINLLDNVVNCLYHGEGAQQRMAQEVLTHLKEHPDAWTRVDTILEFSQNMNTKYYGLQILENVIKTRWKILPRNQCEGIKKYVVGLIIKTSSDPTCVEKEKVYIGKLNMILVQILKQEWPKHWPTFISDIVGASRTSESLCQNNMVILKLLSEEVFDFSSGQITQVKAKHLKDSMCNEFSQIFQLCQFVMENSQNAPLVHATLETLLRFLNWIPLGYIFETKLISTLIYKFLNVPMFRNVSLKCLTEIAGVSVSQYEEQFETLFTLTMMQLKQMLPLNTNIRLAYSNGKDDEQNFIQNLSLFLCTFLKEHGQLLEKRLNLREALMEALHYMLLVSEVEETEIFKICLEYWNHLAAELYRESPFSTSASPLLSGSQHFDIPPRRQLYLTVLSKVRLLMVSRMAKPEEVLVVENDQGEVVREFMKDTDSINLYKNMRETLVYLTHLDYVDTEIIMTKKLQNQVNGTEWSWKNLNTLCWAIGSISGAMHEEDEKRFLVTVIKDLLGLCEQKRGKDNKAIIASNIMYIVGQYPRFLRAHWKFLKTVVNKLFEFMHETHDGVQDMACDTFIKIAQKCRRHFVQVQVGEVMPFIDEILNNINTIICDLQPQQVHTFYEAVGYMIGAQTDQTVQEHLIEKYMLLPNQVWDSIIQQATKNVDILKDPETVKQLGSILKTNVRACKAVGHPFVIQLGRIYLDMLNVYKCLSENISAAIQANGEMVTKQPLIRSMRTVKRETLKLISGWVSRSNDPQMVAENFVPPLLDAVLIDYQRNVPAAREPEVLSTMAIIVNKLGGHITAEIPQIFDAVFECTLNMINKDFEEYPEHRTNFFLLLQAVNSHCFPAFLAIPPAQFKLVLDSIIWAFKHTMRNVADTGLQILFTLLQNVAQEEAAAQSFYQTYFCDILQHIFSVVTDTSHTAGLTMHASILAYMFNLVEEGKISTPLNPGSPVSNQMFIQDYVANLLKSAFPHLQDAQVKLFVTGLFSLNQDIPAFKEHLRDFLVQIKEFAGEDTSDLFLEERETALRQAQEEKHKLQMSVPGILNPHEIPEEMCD", "conditions": "INS-1E SILAC affinity pulldown, competition MS ratio, stronger effect = higher value"}, "Blvrb": {"tested_on": "Blvrb", "conditions": "INS-1E SILAC affinity pulldown, competition MS ratio"}, "LOC303448": {"tested_on": "LOC303448", "conditions": "INS-1E SILAC affinity pulldown, competition MS ratio"}, "Tbc1d15": {"tested_on": "Tbc1d15", "conditions": "INS-1E SILAC affinity pulldown, competition MS ratio"}, "Timm44 [7]": {"molecular_target": "Timm44 (UniProt O35094)", "conditions": "INS-1E SILAC affinity pulldown, competition MS ratio, stronger effect = higher value"}, "Ipo4": {"tested_on": "Ipo4", "conditions": "INS-1E SILAC affinity pulldown, competition MS ratio"}, "Usp9x": {"tested_on": "Usp9x", "conditions": "INS-1E SILAC affinity pulldown, competition MS ratio"}, "Mcm6 [8]": {"tested_on": "Mcm6", "conditions": "INS-1E SILAC affinity pulldown, competition MS ratio, enrichment significance, stronger effect = lower value"}, "Timm44 [9]": {"tested_on": "Timm44", "conditions": "INS-1E SILAC affinity pulldown, competition MS ratio, enrichment significance, stronger effect = lower value"}, "Cand2 [10]": {"tested_on": "Cand2", "conditions": "INS-1E SILAC affinity pulldown, competition MS ratio, enrichment significance, stronger effect = lower value"}, "Ap3b2": {"tested_on": "Ap3b2", "conditions": "INS-1E SILAC affinity pulldown, competition MS ratio"}, "[11]": {"molecular_target": "Adenosylhomocysteinase (Rattus norvegicus) (UniProt P10760)", "sequence (P10760 whole entry, looked up)": "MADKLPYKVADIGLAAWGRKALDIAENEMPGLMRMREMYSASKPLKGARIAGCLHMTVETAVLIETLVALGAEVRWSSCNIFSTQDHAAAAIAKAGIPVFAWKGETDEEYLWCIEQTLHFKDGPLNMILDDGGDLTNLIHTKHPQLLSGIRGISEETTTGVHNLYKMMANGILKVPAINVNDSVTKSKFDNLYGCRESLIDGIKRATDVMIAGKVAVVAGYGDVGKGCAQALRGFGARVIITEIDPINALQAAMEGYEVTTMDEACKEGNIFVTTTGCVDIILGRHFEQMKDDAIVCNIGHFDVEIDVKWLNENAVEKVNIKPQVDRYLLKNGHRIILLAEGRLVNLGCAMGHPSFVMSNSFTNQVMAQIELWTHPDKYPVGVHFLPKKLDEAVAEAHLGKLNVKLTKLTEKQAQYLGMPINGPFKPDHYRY", "conditions": "INS-1E SILAC affinity pulldown, competition MS ratio; Ahcy; stronger effect = higher value"}, "Retsat [12]": {"tested_on": "Retsat", "conditions": "INS-1E SILAC affinity pulldown, competition MS ratio, enrichment significance, stronger effect = lower value"}, "RGD1309903": {"tested_on": "RGD1309903", "conditions": "INS-1E SILAC affinity pulldown, competition MS ratio"}, "Lrpprc [13]": {"molecular_target": "Lrpprc (UniProt Q5SGE0)", "sequence (Q5SGE0 whole entry, looked up)": "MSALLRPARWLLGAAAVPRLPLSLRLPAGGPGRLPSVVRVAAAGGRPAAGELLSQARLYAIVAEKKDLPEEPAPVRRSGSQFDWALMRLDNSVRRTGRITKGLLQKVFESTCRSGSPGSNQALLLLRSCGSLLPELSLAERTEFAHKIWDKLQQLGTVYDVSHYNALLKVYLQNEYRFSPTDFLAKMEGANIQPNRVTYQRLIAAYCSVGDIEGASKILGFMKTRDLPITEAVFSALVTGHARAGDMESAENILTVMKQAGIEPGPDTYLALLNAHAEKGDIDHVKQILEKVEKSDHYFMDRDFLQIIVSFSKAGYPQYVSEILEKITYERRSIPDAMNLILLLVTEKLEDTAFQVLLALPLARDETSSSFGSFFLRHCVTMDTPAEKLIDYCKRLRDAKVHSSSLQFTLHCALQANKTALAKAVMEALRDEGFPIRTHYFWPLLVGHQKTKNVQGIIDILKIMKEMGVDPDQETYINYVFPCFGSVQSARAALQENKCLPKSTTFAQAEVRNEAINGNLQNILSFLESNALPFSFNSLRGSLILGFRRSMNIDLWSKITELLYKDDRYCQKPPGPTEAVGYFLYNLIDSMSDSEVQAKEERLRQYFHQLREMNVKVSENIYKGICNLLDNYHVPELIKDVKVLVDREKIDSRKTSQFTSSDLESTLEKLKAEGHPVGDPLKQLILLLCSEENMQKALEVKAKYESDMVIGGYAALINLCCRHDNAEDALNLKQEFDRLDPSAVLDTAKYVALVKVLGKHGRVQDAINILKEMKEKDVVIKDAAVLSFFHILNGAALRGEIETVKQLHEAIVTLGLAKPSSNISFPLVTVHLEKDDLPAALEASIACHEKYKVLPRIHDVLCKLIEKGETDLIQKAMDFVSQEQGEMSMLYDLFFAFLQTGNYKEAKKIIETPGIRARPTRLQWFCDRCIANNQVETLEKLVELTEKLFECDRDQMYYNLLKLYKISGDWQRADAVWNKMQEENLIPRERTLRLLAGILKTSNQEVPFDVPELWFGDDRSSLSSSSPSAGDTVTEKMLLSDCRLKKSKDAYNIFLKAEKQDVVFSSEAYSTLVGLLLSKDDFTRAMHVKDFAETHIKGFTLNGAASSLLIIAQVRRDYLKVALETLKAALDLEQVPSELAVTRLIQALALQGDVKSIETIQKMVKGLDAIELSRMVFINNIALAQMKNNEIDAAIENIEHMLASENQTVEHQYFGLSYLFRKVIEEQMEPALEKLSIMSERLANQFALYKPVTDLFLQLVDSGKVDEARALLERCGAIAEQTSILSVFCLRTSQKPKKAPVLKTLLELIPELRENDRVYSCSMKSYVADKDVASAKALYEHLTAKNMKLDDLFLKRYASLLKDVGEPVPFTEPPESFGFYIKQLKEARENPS", "conditions": "INS-1E SILAC affinity pulldown, competition MS ratio, stronger effect = higher value"}, "Ipo9": {"tested_on": "Ipo9", "conditions": "INS-1E SILAC affinity pulldown, competition MS ratio"}, "Cand1": {"tested_on": "Cand1", "conditions": "INS-1E SILAC affinity pulldown, competition MS ratio"}, "Lrpprc [14]": {"tested_on": "Lrpprc", "conditions": "INS-1E SILAC affinity pulldown, competition MS ratio, enrichment significance, stronger effect = lower value"}, "Gapdh": {"tested_on": "Gapdh", "conditions": "INS-1E SILAC affinity pulldown, competition MS ratio, enrichment significance, stronger effect = lower value"}, "[15]": {"conditions": "enrichment significance, stronger effect = lower value"}}, "data": [{"smiles": "C[C@@H]1CN([C@@H](C)CO)C(=O)c2cccc(NC(=O)Nc3cccc4ccccc34)c2O[C@H]1CN(C)S(=O)(=O)c1ccc2c(c1)OCCO2", "values": [{"measurement": "log2 SILAC competition ratio", "setting": "Mcm6 [1]", "result": 1.63}, {"measurement": "log2 SILAC competition ratio", "setting": "Cand2 [2]", "result": 0.496}, {"measurement": "log2 SILAC competition ratio", "setting": "Retsat [3]", "result": 0.58}, {"measurement": "p-value", "setting": "Ahcy", "result": "8.65e-05"}, {"measurement": "log2 SILAC competition ratio", "setting": "[4]", "result": 0.72}, {"measurement": "p-value", "setting": "Xpo1 [5]", "result": 0.0109}, {"measurement": "log2 SILAC competition ratio", "setting": "Xpo1 [6]", "result": 0.56}, {"measurement": "p-value", "setting": "Blvrb; [15]", "result": "7.19e-23"}, {"measurement": "log2 SILAC competition ratio", "setting": "Blvrb; stronger effect = higher value", "result": 1.52}, {"measurement": "p-value", "setting": "LOC303448; [15]", "result": "3.33e-05"}, {"measurement": "log2 SILAC competition ratio", "setting": "LOC303448; stronger effect = higher value", "result": 0.74}, {"measurement": "p-value", "setting": "Tbc1d15; [15]", "result": "6.97e-05"}, {"measurement": "log2 SILAC competition ratio", "setting": "Tbc1d15; stronger effect = higher value", "result": 0.72}, {"measurement": "log2 SILAC competition ratio", "setting": "Timm44 [7]", "result": 0.52}, {"measurement": "p-value", "setting": "Ipo4; [15]", "result": 0.000164}, {"measurement": "log2 SILAC competition ratio", "setting": "Ipo4; stronger effect = higher value", "result": 0.7}, {"measurement": "p-value", "setting": "Usp9x; [15]", "result": "2.07e-09"}, {"measurement": "log2 SILAC competition ratio", "setting": "Usp9x; stronger effect = higher value", "result": 0.98}, {"measurement": "p-value", "setting": "Mcm6 [8]", "result": "2.29e-26"}, {"measurement": "p-value", "setting": "Timm44 [9]", "result": 0.0266}, {"measurement": "p-value", "setting": "Cand2 [10]", "result": 0.0511}, {"measurement": "p-value", "setting": "Ap3b2; [15]", "result": "1.01e-06"}, {"measurement": "log2 SILAC competition ratio", "setting": "Ap3b2; stronger effect = higher value", "result": 0.84}, {"measurement": "log2 SILAC competition ratio", "setting": "[11]", "result": 0.72}, {"measurement": "p-value", "setting": "Retsat [12]", "result": 0.00538}, {"measurement": "p-value", "setting": "RGD1309903; [15]", "result": 0.000418}, {"measurement": "log2 SILAC competition ratio", "setting": "RGD1309903; stronger effect = higher value", "result": 0.67}, {"measurement": "log2 SILAC competition ratio", "setting": "Lrpprc [13]", "result": 0.64}, {"measurement": "p-value", "setting": "Ipo9; [15]", "result": 0.00514}, {"measurement": "log2 SILAC competition ratio", "setting": "Ipo9; stronger effect = higher value", "result": 0.58}, {"measurement": "p-value", "setting": "Cand1; [15]", "result": "7.49e-06"}, {"measurement": "log2 SILAC competition ratio", "setting": "Cand1; stronger effect = higher value", "result": 0.78}, {"measurement": "p-value", "setting": "Lrpprc [14]", "result": 0.00102}, {"measurement": "p-value", "setting": "Gapdh", "result": "7.85e-05"}]}]}
